The record followed here is US9914730B2, “Azaquinazoline inhibitors of Atypical protein Kinase C” (Ignyta, Inc., priority 2012, dated 2018).

For this test, the target named is T1, full-length human PKCι (Homo sapiens, UniProt P41743).
T1 construct: Recombinant, full-length human PKCι expressed in Sf21 insect cells is also commercially available; purchased; host or cells: Sf21 insect cells
T1 sequence (P41743 1-596): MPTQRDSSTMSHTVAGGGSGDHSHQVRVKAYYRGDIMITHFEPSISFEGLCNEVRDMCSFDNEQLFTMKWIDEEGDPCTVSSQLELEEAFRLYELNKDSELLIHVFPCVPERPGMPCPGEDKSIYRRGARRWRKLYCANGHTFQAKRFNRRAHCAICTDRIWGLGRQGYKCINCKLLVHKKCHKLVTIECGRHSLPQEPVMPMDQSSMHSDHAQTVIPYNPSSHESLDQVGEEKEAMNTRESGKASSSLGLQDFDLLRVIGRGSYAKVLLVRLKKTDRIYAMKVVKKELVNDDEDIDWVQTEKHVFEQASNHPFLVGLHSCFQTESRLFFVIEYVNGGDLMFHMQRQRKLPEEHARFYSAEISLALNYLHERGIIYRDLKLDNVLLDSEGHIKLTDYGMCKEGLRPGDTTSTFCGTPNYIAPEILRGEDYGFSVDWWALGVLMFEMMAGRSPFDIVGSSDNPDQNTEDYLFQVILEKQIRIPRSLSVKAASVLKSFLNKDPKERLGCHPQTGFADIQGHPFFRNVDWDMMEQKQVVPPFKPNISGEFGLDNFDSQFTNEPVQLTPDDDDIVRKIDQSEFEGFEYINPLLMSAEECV
Put plainly: PKCι IC50 IMAP assay, full-length PKCι at 150 μM ATP. The note with it: read-out: IC50 in IMAP assay against full length PKCi at 150 μM ATP. Type of test: biochemical. The essentials: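 Compounds in 4% final DMSO are mixed with Sf21-derived full-length human PKCι (typically 15 pM) and 100 nM FAM-labelled pseudosubstrate peptide, then started with 150 μM ATP. Reaction runs 60 min at room temperature, is quenched with IMAP development reagent for 2 h, and fluorescence polarisation is measured to derive IC50.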

Regarding `COc1cccc(CC(=O)Nc2cc(-c3nc(N4CCNCC4)c4c(OC)cncc4n3)ccn2)c1` [Example 372, 2-(3-Methoxy-phenyl)-N-[4-(5-methoxy-4-piperazin-1-yl-pyrido[3,4-d]pyrimidin-2-yl)-pyridin-2-yl]-acetamide], the IC50 was less than 100 nM. `COc1cncc2nc(-c3ccnc(Nc4cccc(F)n4)c3)nc(N3CCC(O)CC3)c12` [Example 468, 1-{2-[2-(6-Fluoro-pyridin-2-ylamino)-pyridin-4-yl]-5-methoxy-pyrido[3,4-d]pyrimidin-4-yl}-piperidin-4-ol]: the IC50 was in the range of 100 to 1000 nM. The value for `c1ccc2c(c1)CC(Nc1cc(-c3nc(N4CCNCC4)c4c(C5CC5)cncc4n3)ccn1)C2` [Example 2097] was less than 100 nM; that for `c1ccc2cc(Nc3cc(-c4nc(N5CCNCC5)c5c(C6CC6)cncc5n4)ccn3)ncc2c1` [Example 2060, [4-(5-Cyclopropyl-4-piperazin-1-yl-pyrido[3,4-d]pyrimidin-2-yl)-pyridin-2-yl]-iso[D4],[D3]uinolin-3-yl-amine] was less than 100 nM. The result for `c1cc2c(N[C@@H]3CCNC3)nc(N3CCOCC3)nc2cn1` [Example 1011, (2-Morpholin-4-yl-pyrido[3,4-d]pyrimidin-4-yl)-(R)-pyrrolidin-3-yl-amine] reads 1000 to 10000 nM; that for `FC1(F)CCCC(Nc2cc(-c3nc(N4CCNCC4)c4c(C5CC5)cncc4n3)ccn2)C1` (stereo not drawn) [Example 673, [4-(5-Cyclopropyl-4-piperazin-1-yl-pyrido[3,4-d]pyrimidin-2-yl)-pyridin-2-yl]-(3,3-difluoro-cyclohexyl)-amine], less than 100 nM. Turning to `CC1(C)CN(c2nc(-c3ccnc(Nc4ccn(CC(F)(F)F)n4)c3)nc3cncc(C4CC4)c23)CCN1` [Example 2017, {4-[5-Cyclopropyl-4-(3,3-dimethyl-piperazin-1-yl)-pyrido[3,4-d]pyrimidin-2-yl]-pyridin-2-yl}-[1-(2,2,2-trifluoro-ethyl)-1H-pyrazol-3-yl]-amine], the 50% inhibitory concentration (IC50) is less than 100 nM. For `COc1cncc2nc(-c3ccncc3)nc(N3CCN4C(=O)OC[C@H]4C3)c12` [Example 86, (3aR)-5-[5-methoxy-2-(pyridin-4-yl)pyrido[3,4-d]pyrimidin-4-yl]-hexahydro-1H-[1,3]oxazolo[3,4-a]piperazin-1-one], the IC50 was 1000 to 10000 nM. The result for `COc1ccc(F)c(Nc2cc(-c3nc(N4CCNCC4)c4c(C5CC5)cncc4n3)ccn2)c1F` [Example 566, [4-(5-Cyclopropyl-4-piperazin-1-yl-pyrido[3,4-d]pyrimidin-2-yl)-pyridin-2-yl]-(2,6-difluoro-3-methoxy-phenyl)-amine] reads less than 100 nM. On to `CC(C)[C@H]1CN(c2nc(-c3ccnc(Nc4ccccc4)c3)nc3cncc(C4CC4)c23)CCN1` [Example 275, {4-[5-Cyclopropyl-4-((S)-3-isopropyl-piperazin-1-yl)-pyrido[3,4-d]pyrimidin-2-yl]-pyridin-2-yl}-phenyl-amine], for which the IC50 was less than 100 nM.

Consider `FC(F)(F)Cn1cc(Cl)c(Nc2cc(-c3nc(N4CCNCC4)c4c(C5CC5)cncc4n3)ccn2)n1` [Example 2030, [4-Chloro-1-(2,2,2-trifluoro-ethyl)-1H-pyrazol-3-yl]-[4-(5-cyclopropyl-4-piperazin-1-yl-pyrido[3,4-d]pyrimidin-2-yl)-pyridin-2-yl]-amine], for which the IC50 is less than 100 nM. The result for `COc1cncc2nc(-c3ccnc(Nc4ccc(N5CCNCC5)nc4)c3)nc(N3CCNCC3)c12` [Example 412, [4-(5-Methoxy-4-piperazin-1-yl-pyrido[3,4-d]pyrimidin-2-yl)-pyridin-2-yl]-(6-piperazin-1-ylpyridin-3-yl)-amine] reads less than 100 nM; that for `COc1cncc2nc(-c3ccnc(Nc4ccc(C(F)(F)F)nc4)c3)nc(N3CCNCC3)c12` [Example 395, [4-(5-Methoxy-4-piperazin-1-yl-pyrido[3,4-d]pyrimidin-2-yl)-pyridin-2-yl]-(6-trifluoromethyl-pyridin-3-yl)-amine], 100 to 1000 nM. As for `CC(C)c1cncc2nc(-c3ccnc4[nH]ccc34)nc(N3CCNCC3)c12` [Example 1211, 5-Isopropyl-4-piperazin-1-yl-2-(1H-pyrrolo[2,3-b]pyridin-4-yl)-pyrido[3,4-d]pyrimidine], the IC50 is less than 100 nM. The result for `c1ccc(COCc2cncc3nc(-c4ccncc4)nc(N4CCNCC4)c23)cc1` [Example 140, 1-{5-[(benzyloxy)methyl]-2-(pyridin-4-yl)pyrido[3,4-d]pyrimidin-4-yl}piperazine] reads 100 to 1000 nM; that for `COc1cc2nccc(-c3nc(N4CCNCC4)c4c(C5CC5)cncc4n3)c2cc1OC` [Example 579, 5-Cyclopropyl-2-(6,7-dimethoxy-quinolin-4-yl)-4-piperazin-1-yl-pyrido[3,4-d]pyrimidine], 10000 to 40000 nM.

For `Fc1cccc(F)c1Nc1cc(-c2nc(C3=CCNCC3)c3c(C4CC4)cncc3n2)ccn1` [Example 789, {4-[5-Cyclopropyl-4-(1,2,3,6-tetrahydro-pyridin-4-yl)-pyrido[3,4-d]pyrimidin-2-yl]-pyridin-2-yl}-(2,6-difluoro-phenyl)-amine], the IC50 was 100 to 1000 nM.

`COc1cncc2nc(-c3ccncc3)nc(N3CCN[C@@H](C)C3)c12` [Example 44, (3S)-1-[5-methoxy-2-(pyridin-4-yl)-pyrido[3,4-d]-pyrimidin-4-yl]-3-methylpiperazine]: the IC50 lay within 100 to 1000 nM. Regarding `COc1cncc2nc(-c3ccnc(Nc4nc(C)co4)c3)nc(N3CCNCC3)c12` [Example 221, [4-(5-Methoxy-4-piperazin-1-yl-pyrido[3,4-d]pyrimidin-2-yl)-pyridin-2-yl]-(4-methyl-oxazol-2-yl)-amine], the IC50 is less than 100 nM.

Regarding `CN1CCP(=O)(c2ccc(Nc3cc(-c4nc(N5CCNCC5)c5c(C6CC6)cncc5n4)ccn3)cc2)CC1` [Example 614, [4-(5-Cyclopropyl-4-piperazin-1-yl-pyrido[3,4-d]pyrimidin-2-yl)-pyridin-2-yl]-[4-(1-methyl-4-oxo-4λ^5-[1,4]azaphos-phinan-4-yl)-phenyl]-amine], the IC50 is less than 100 nM. Take `O=CN[C@H](CNc1nc(-c2ccncc2)nc2cnccc12)Cc1ccccc1` [Example 78, N—[(S)-1-Benzyl-2-(2-pyridin-4-yl-pyrido[3,4-d]pyrimidin-4-ylamino)-ethyl]-formamide]: the IC50 lay within 1000 to 10000 nM. As to `N[C@H](CNc1nc(-c2ccncc2)nc2c(-c3cccc(Cl)c3)nccc12)Cc1ccccc1` [Example 102, N-[(2S)-2-amino-3-phenylpropyl]-8-(3-chloro-phenyl)-2-(pyridin-4-yl)-pyrido[3,4-d]-pyrimidin-4-amine], the IC50 fell in the range of 100 to 1000 nM. The value for `C[C@H]1CN(c2nc(-c3ccnc(Nc4ccccc4)c3)nc3cncc(C4CC4)c23)CCN1` [Example 569, {4-[5-Cyclopropyl-4-((S)-3-methyl-piperazin-1-yl)-pyrido[3,4-d]pyrimidin-2-yl]-pyridin-2-yl}-phenyl-amine] was less than 100 nM. As to `FC(F)(F)c1ccnc(Nc2cc(-c3nc(N[C@@H]4CCNC4)c4ccncc4n3)ccn2)c1` [Example 350, (R)-Pyrrolidin-3-yl-{2-[2-(4-trifluoromethyl-pyridin-2-ylamino)-pyridin-4-yl]-pyrido[3,4-d]pyrimidin-4-yl}-amine], the IC50 was less than 100 nM. Regarding `CCCc1nccc2c(N3CCNCC3)nc(-c3ccncc3)nc12` [Example 159, 4-piperazin-1-yl-8-propyl-2-pyridin-4-yl-pyrido[3,4-d]pyrimidine], the IC50 lay in the range of 10000 to 40000 nM. For the compound `COc1cncc2nc(N3CCOCC3)nc(N3CCN[C@@H](COc4ccc(F)cc4)C3)c12` [Example 1010, 4-[(R)-3-(4-Fluoro-phenoxymethyl)-piperazin-1-yl]-5-methoxy-2-morpholin-4-yl-pyrido[3,4-d]pyrimidine], the IC50 was 100 to 1000 nM. The result for `c1cc(-c2nc(N3CCNCC3)c3c(C4CC4)cncc3n2)c2c(n1)NC1(CCCCC1)C2` [Example 1252, 4-(5-cyclopropyl-4-piperazin-1-yl-pyrido[3,4-d]pyrimidin-2-yl)spiro[1,3-dihydropyrrolo[2,3-b]pyridine-2,1′-cyclohexane]] reads less than 100 nM; that for `FC(F)(F)c1cc2c(-c3nc(N4CCNCC4)c4c(Br)cncc4n3)ccnc2[nH]1` [Example 2117, 5-Bromo-4-piperazin-1-yl-2-(2-trifluoromethyl-1H-pyrrolo[2,3-b]pyridin-4-yl)-pyrido[3,4-d]pyrimidine], less than 100 nM; that for `COc1cncc2nc(-c3ccnc(Nc4cc(Cl)ccn4)c3)nc(N3CCNCC3)c12` [Example 365, (4-Chloro-pyridin-2-yl)-[4-(5-methoxy-4-piperazin-1-yl-pyrido[3,4-d]pyrimidin-2-yl)-pyridin-2-yl]-amine], less than 100 nM. For `c1cc(-c2nc(N3CCNCC3)c3c(C4CC4)cncc3n2)cc(NC2CCCCC2)n1` [Example 282, Cyclohexyl-[4-(5-cyclopropyl-4-piperazin-1-yl-pyrido[3,4-d]pyrimidin-2-yl)-pyridin-2-yl]-amine], the IC50 was less than 100 nM.
